“Also recorded” adds a separate entry of the source.
Assays:
[1] = system: cells (cell cycle phase); experiment: Cell cycle phase analysis by flow cytometry after CPT treatment; format: cell-based; conditions: FIG. 16
Description: Quantifying the proportion of cells in each phase of a cell cycle, including mitotic phases is widely carried out by flow cytometry using a stoichiometric fluorescent stain for DNA that reports the cells' position within the G1, S and G2 phases of the cell cycle. However, these stains are not compatible with live cell analysis.
(§1) FIGS. 16A, 16D, 16G, and 16J, corresponding to subpanel (a), (d), (g), and (j) are from flow cytometry, while the analogous impedance cytometry plots are in FIGS. 16B, 16C, 16E, 16F, 16H, 16I, 16K, and 16L (corresponding to subpanel (b) and (c), (e) and (f), (h) and (i), and (k) and (l)), respectively.
(§2) As per FIG. 16, indeed, CPT treatment at 5 nM and 10 nM levels increases the proportion of the sum of S and G2 phase cells, which can be detected based on the proportion of cells in the high impedance phase contrast (ϕZ contrast) region.

[2] = system: cells (cell cycle phase); experiment: Cell cycle phase assessment by impedance cytometry (ϕZ contrast) after CPT treatment; format: cell-based; conditions: FIG. 16
Description: FIG. 16 illustrates that the exemplary impedance contrast method and system can be used to detect lineage of cells based on differences of phases of cell cycle in accordance with an illustrative embodiment. That is, differences in electrophysiology between cells in G1 phase versus those with S and G2 phase can be detected using the phase contrast metric that is sensitive to interior conductivity, which can be an indicator of nucleus size (i.e., cell cycle phase/stage).
In FIG. 16, it can be observed that increasing the proportion of cells in the G2 phase increases the proportion of cells in the high impedance phase contrast (ϕZ contrast) region between 5 nM and 10 nM CPT treatment, whereas lowering the proportion of cells in G2 phase by […] CPT treatment lowers the proportion of cells in the high impedance phase contrast (ϕZ contrast) region.
as §1, §2

[3] = system: PDXs of mPanc; experiment: Impedance phase contrast assessment of drug sensitivity, Gemcitabine-treated PDXs of mPanc; format: cell-based, human; conditions: standard 2D cell culture plate, over all five days, FIG. 15B
Description: (§3) In this context, since alterations in subcellular electrophysiology in response to drug-induced apoptosis or autophagy occur earlier in the cell cycle than apparent with staining-based or imaging approaches, the exemplary method and system in using electrophysiology for kinetic monitoring may be used to track differences in stochastic cell sensitivity to various drugs. Additionally, the exemplary electrophysiology method and system require no sample preparation steps for staining or image contrast enhancement, thereby preserving the state of fragile apoptotic cells. […] As a non-limiting example, sensitivity of the electrophysiology of patient-derived pancreatic tumor xenografts (PDXs) to the chemotherapy drug gemcitabine may be used to illustrate the assay. Currently, treatment with folfirinox drug combination is the preferred first-line therapy for pancreatic cancer, but a significant fraction of patients cannot tolerate the overall drug cytotoxicity. […] On the other hand, for Control (untreated) versus Gemcitabine-treated PDXs of mPanc (FIG. 15B), the alterations are only modest over all five days. Indeed, the drug sensitivity determination based on tumor size takes 5 days.

[4] = system: PDXs of 608; conditions: PDX 608; cited from earlier work
[5] = system: PDXs of mPanc; conditions: PDX mPanc; cited from earlier work
[6] = system: PDXs of 608; experiment: Impedance phase contrast assessment of drug sensitivity, Gemcitabine-treated PDXs of 608; format: cell-based, human; conditions: standard 2D cell culture plate, right from Day 1, more clearly Day 2-5, FIG. 15A
Description: as §3

| Compound | proportion of the sum of S and G2 phase cells ([1]; CPT treatment at 5 nM) | proportion of the sum of S and G2 phase cells ([1]; CPT treatment at 10 nM) | proportion of cells in S phase ([1]; CPT treatment at 100 nM) | proportion of cells in the G2 phase ([1]; CPT treatment at 100 nM) | proportion of cells in the high impedance phase contrast (ϕZ contrast) region ([2]; CPT treatment at 100 nM) | proportion of cells in the high impedance phase contrast (ϕZ contrast) region ([2]; between 5 nM and 10 nM CPT treatment) | impedance phase contrast, Control (untreated) versus Gemcitabine-treated [3] | known sensitivity to gemcitabine [4] | known sensitivity to gemcitabine [5] | impedance phase contrast, Control (untreated) versus Gemcitabine-treated [6] |
| --- | --- | --- | --- | --- | --- | --- | --- | --- | --- | --- |
| CC[C@@]1(O)C(=O)OCc2c1cc1n(c2=O)Cc2cc3ccccc3nc2-1 [CPT] | increases | increases | increasing | lowering; also recorded: lowers | lowers; also recorded: substantive decrease | increases | – | – | – | – |
| Nc1ccn([C@@H]2O[C@H](CO)[C@@H](O)C2(F)F)c(=O)n1 [Gemcitabine, gemcitabine] | – | – | – | – | – | – | only modest | sensitive | relatively more resistant | statistically significant differences |

Source: patent US11965810B2, “Multiplexed on-chip impedance cytometry system and method” (UNIVERSITY OF VIRGINIA PATENT FOUNDATION, priority 2018, dated 2024)
